Assay results from US20220033397A1, “PHARMACEUTICAL COMPOUNDS AND THEIR USE AS INHIBITORS OF UBIQUITIN SPECIFIC PROTEASE 19 (USP19)” (ALMAC DISCOVERY LIMITED, priority 2018, published 2022).

Each compound was assayed against T1, Full-length USP19 (Homo sapiens, UniProt O94966) (assay: USP19 fluorescence polarisation (FP) homogeneous assay with Ubiquitin-Lys-TAMRA substrate). Settings: 2.5 nM USP19, 30 min pre-incubation, average of at least two duplicate experiments.
T1 construct: Full-length USP19 was purchased from Boston Biochem (E-576); purchased Boston Biochem E-576
T1 sequence (O94966 1-1318): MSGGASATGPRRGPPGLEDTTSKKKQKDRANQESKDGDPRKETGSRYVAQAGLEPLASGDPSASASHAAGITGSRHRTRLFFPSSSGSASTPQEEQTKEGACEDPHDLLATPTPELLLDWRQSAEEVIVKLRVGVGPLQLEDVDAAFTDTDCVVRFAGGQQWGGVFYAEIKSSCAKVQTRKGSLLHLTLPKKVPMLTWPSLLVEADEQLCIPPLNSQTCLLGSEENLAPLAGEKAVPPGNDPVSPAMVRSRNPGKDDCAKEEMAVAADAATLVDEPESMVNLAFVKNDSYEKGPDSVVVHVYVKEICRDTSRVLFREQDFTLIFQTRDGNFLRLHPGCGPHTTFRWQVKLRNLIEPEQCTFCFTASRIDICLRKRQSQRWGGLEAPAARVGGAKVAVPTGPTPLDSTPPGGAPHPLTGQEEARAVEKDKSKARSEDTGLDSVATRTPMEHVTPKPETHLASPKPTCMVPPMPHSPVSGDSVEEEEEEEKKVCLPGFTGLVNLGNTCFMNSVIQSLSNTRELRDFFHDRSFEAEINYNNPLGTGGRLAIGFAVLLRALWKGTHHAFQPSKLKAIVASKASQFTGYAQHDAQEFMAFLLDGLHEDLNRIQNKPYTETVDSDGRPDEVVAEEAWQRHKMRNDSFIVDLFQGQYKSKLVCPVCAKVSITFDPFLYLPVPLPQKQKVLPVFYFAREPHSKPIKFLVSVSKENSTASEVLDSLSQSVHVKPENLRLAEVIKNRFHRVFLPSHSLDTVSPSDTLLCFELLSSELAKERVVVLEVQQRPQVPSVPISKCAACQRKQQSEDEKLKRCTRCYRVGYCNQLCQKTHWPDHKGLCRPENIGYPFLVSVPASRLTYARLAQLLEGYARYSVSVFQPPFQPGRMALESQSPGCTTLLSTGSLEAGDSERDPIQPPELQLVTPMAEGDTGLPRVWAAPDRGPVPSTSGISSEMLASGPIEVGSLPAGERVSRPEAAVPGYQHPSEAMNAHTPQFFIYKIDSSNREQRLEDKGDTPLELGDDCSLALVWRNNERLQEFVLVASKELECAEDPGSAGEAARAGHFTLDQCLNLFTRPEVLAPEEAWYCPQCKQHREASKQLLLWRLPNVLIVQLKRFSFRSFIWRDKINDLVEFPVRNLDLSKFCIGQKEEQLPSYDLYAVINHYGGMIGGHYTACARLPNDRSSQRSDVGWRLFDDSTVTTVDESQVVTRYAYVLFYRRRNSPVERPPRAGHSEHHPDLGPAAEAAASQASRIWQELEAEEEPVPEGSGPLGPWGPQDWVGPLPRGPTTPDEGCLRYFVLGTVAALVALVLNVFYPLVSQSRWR
Assay type: biochemical
Summary of the method: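 Full-length USP19 preincubated 30 min at RT with inhibitor (200 μM to 2 μM series, 8–18 points) before adding 500 nM Ubiquitin-Lys-TAMRA substrate.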
Compound `CSc1cn(CC2(O)CCN(C(=O)N3CCNC[C@H]3c3ccccc3)CC23CCCC3)c(=O)cc1-c1ccccc1` (stereo partly drawn) [Example 186, 1-((10-Hydroxy-7-((R)-2-phenylpiperazine-1-carbonyl)-7-azaspiro[4.5]decan-10-yl)methyl)-5-(methylthio)-4-phenylpyridin-2(1H)-one] has an IC50 of under 0.5 µM.
`O=C(N1CC(C2CC2)C1)N1CCC(O)(Cn2cnc(-c3ccccc3)cc2=O)C2(CCCC2)C1` (centres unmarked) [Example 252, 3-((7-(3-Cyclopropylazetidine-1-carbonyl)-10-hydroxy-7-azaspiro[4.5]decan-10-yl)methyl)-6-phenylpyrimidin-4(3H)-one] was tested, and the IC50 was 5 to 50 µM.
Work on `O=C(NCc1ccco1)N1CC[C@@](O)(Cn2cnc(-c3ccccc3)cc2=O)C2(CCCC2)C1` [Example 219, (S)—N-(Furan-2-ylmethyl)-10-hydroxy-10-((6-oxo-4-phenylpyrimidin-1(6H)-yl)methyl)-7-azaspiro[4.5]decane-7-carboxamide] yielded an IC50 of under 0.5 µM.
`O=C(N1CCC(O)(Cn2cnc(-c3ccccc3)cc2=O)C2(CCCCC2)C1)N1CCNC[C@H]1c1ccccc1` (stereo partly drawn) [Example 298, 3-((5-Hydroxy-2-((R)-2-phenylpiperazine-1-carbonyl)-2-azaspiro[5.5]undecan-5-yl)methyl)-6-phenylpyrimidin-4(3H)-one] gave an IC50 of under 0.5 µM.
`O=C(NCc1ccccc1)N1CCC(O)(Cn2cnc(N3CCCC3)cc2=O)C2(CCCC2)C1` (centres unmarked) [Example 202, N-Benzyl-10-hydroxy-10-((6-oxo-4-(pyrrolidin-1-yl)pyrimidin-1(6H)-yl)methyl)-7-azaspiro[4.5]decane-7-carboxamide] was tested, and the IC50 was 5 to 50 µM.
`O=C(N[C@H](c1ccccc1)C(F)(F)F)N1CC[C@@](O)(Cn2ccc(-c3ccccc3)cc2=O)C2(CCCC2)C1` [Example 309, (S)-10-Hydroxy-10-((2-oxo-4-phenylpyridin-1(2H)-yl)methyl)-N—((R)-2,2,2-trifluoro-1-phenylethyl)-7-azaspiro[4.5]decane-7-carboxamide] was tested, and the IC50 was under 0.5 µM.
`N#CCc1ccc(CNC(=O)N2CCC(O)(Cn3cnc(-c4ccccc4)cc3=O)C3(CCCC3)C2)cc1` (centres unmarked) [Example 258, N-(4-(Cyanomethyl)benzyl)-10-hydroxy-10-((6-oxo-4-phenylpyrimidin-1(6H)-yl)methyl)-7-azaspiro[4.5]decane-7-carboxamide] was tested, and the IC50 was 5 to 50 µM.
For `Cn1nc(C(F)(F)F)cc1-c1ccn(C[C@]2(O)CCN(C(=O)N3CCNC[C@H]3c3ccccc3)CC23CCCC3)c(=O)c1` [Example 362, 1-(((S)-10-Hydroxy-7-((R)-2-phenylpiperazine-1-carbonyl)-7-azaspiro [4.5]decan-10-yl)methyl)-4-(1-methyl-3-(trifluoromethyl)-1H-pyrazol-5-yl)pyri-din-2(1H)-one], the IC50 was under 0.5 µM.
`C[C@H](CC1CCCCC1)C(=O)N1CCC(O)(Cn2ccc3ccncc3c2=O)C2(CCCC2)C1` (stereo partly drawn) [Example 137, 2-((7-((R)-3-Cyclohexyl-2-methylpropanoyl)-10-hydroxy-7-azaspiro[4.5]decan-10-yl)methyl)-2,7-naphthyridin-1(2H)-one] showed an IC50 of under 0.5 µM.
In the case of `O=C(N1CC[C@@](O)(Cn2cnc(-c3ccccc3)cc2=O)C2(CCCC2)C1)N1CCNCC1c1cccs1` (stereo partly drawn) [Example 358, 3-(((10S)-10-Hy-droxy-7-(2-(thio-phen-2-yl)piperazine-1-carbonyl)-7-aza-spiro[4.5]decan-10-yl)methyl)-6-phenylpyrimidin-4(3H)-one], the IC50 is reported as under 0.5 µM.
Compound `O=C(N1CC[C@@](O)(Cn2cnc(-c3ccccc3F)cc2=O)C2(CCCC2)C1)N1CCNC[C@H]1c1cccc(F)c1` [Example 355, 6-(2-Fluorophenyl)-3-(((S)-7-((R)-2-(3-fluorophenyl)pipera-zine-1-carbonyl)-10-hydroxy-7-aza-spiro[4.5]decan-10-yl)methyl)pyrimidin-4(3H)-one] has an IC50 of under 0.5 µM.
Work on `CS(=O)(=O)c1cn(CC2(O)CCN(C(=O)N3CCNC[C@H]3c3ccccc3)CC23CCCC3)c(=O)cc1-c1ccccc1` (stereo partly drawn) [Example 188, 1-((10-Hydroxy-7-((R)-2-phenylpiperazine-1-carbonyl)-7-azaspiro[4.5]decan-10-yl)methyl)-5-(methylsulfonyl)-4-phenylpyridin-2(1H)-one] yielded an IC50 of under 0.5 µM.
Compound `CNc1cc(=O)n(C[C@]2(O)CCN(C(=O)N3CCNC[C@H]3c3ccccc3)CC23CCCC3)cn1` [Example 319, 3-(((S)-10-Hydroxy-7-((R)-2-phenylpiperazine-1-carbonyl)-7-azaspiro[4.5]decan-10-yl)methyl)-6-(methylamino)pyrimidin-4(3H)-one] has an IC50 of under 0.5 µM.
In the case of `C[C@H](CC(F)(F)F)C(=O)N1CCC(O)(Cn2cnc3c(cnn3C)c2=O)C2(CCCC2)C1` (stereo partly drawn) [Example 180, 5-((10-Hydroxy-7-((R)-4,4,4-trifluoro-2-methylbutanoyl)-7-azaspiro[4.5]decan-10-yl)methyl)-1-methyl-1,5-dihydro-4H-pyrazolo[3,4-d]pyrimidin-4-one], the IC50 is reported as 5 to 50 µM.
With `O=C(N1CC[C@@](O)(Cn2cnc(-c3ccccc3)cc2=O)C2(CCCC2)C1)N1CCNCC1c1ccc(F)c(F)c1` (stereo partly drawn) [Example 379, 3-(((10S)-7-(2-(3,4-Difluorophenyl)piper-azine-1-carbonyl)-10-hydroxy-7-azaspiro[4.5]decan-10-yl)methyl)-6-phenylpyrimidin-4(3H)-one] the IC50 was under 0.5 µM.
Work on `CS(=N)(=O)c1cn(CC2(O)CCN(C(=O)N3CCNC[C@H]3c3ccccc3)CC23CCCC3)c(=O)cc1-c1ccccc1` (stereo partly drawn) [Example 189, 1-((10-Hydroxy-7-((R)-2-phenylpiperazine-1-carbonyl)-7-azaspiro[4.5]decan-10-yl)methyl)-5-(S-methylsulfonimidoyl)-4-phenylpyridin-2(1H)-one] yielded an IC50 of under 0.5 µM.
`O=C(N1CCC(O)(Cn2cnc(-c3ccccc3)cc2=O)C2(CCCC2)C1)N1CCOCC12CCCCC2` (centres unmarked) [Example 261, 3-((10-Hydroxy-7-(4-oxa-1-azaspiro[5.5]undecane-1-carbonyl)-7-azaspiro[4.5]decan-10-yl)methyl)-6-phenylpyrimidin-4(3H)-one] gave an IC50 of 5 to 50 µM.
Compound `COc1ccccc1-c1cc(=O)n(C[C@]2(O)CCN(C(=O)N3CCNC[C@H]3c3ccccc3)CC23CCCC3)cn1` [Example 317, 3-(((S)-10-Hydroxy-7-((R)-2-phenylpiperazine-1-carbonyl)-7-azaspiro[4.5]decan-10-yl)methyl)-6-(2-methoxyphenyl)pyrimidin-4(3H)-one] has an IC50 of under 0.5 µM.
`O=C(N1CC[C@@](O)(Cn2cnc(-c3ccc4c(c3)OCC4)cc2=O)C2(CCCC2)C1)N1CCNC[C@H]1c1ccccc1` [Example 353, 6-(2,3-Dihydrobenzofuran-6-yl)-3-(((S)-10-hy-droxy-7-((R)-2-phenylpiperazine-1-carbonyl)-7-aza-spiro[4.5]decan-10-yl)methyl)pyrimidin-4(3H)-one] showed an IC50 of under 0.5 µM.
With `O=C(N1CC[C@@](O)(Cn2cnc(-c3ccccc3OC(F)F)cc2=O)C2(CCCC2)C1)N1CCNC[C@H]1c1ccccc1` [Example 364, 6-(2-(Difluoro-methoxy)phenyl)-3-(((S)-10-hydroxy-7-((R)-2-phenylpiperazine-1-carbonyl)-7-aza-spiro[4.5]decan-10-yl)methyl)pyrimidin-4(3H)-one] the IC50 was under 0.5 µM.
With `Cn1c2ncncc2c(=O)n1CC1(O)CCN(C(=O)N2CCNC[C@H]2c2ccccc2)CC12CCCC2` (stereo partly drawn) [Example 175, 2-((10-Hydroxy-7-((R)-2-phenylpiperazine-1-carbonyl)-7-azaspiro[4.5]decan-10-yl)methyl)-1-methyl-1,2-dihydro-3H-pyrazolo[3,4-d]pyrimidin-3-one] the IC50 was 5 to 50 µM.
In the case of `O=C(N1CC[C@@](O)(Cn2cnc(-c3ccccc3)cc2=O)C2(CCCC2)C1)N1CCOC[C@@H]1c1ccccc1` [Example 212, 3-(((S)-10-Hydroxy-7-((S)-3-phenylmorpholine-4-carbonyl)-7-azaspiro[4.5]decan-10-yl)methyl)-6-phenylpyrimidin-4(3H)-one], the IC50 is reported as 50 to 250 µM.
Compound `CC(C1CC1)N(C)C(=O)N1CCC(O)(Cn2cnc(-c3ccccc3)cc2=O)C2(CCCC2)C1` (centres unmarked) [Example 247, N-(1-Cyclopropylethyl)-10-hydroxy-N-methyl-10-((6-oxo-4-phenylpyrimidin-1(6H)-yl)methyl)-7-azaspiro[4.5]decane-7-carboxamide] has an IC50 of 5 to 50 µM.
